Results as given in patent publication US11396495B2, “Amine compound for inhibiting SSAO/VAP-1 and use thereof” (SUNSHINE LAKE PHARMA CO., LTD., priority 2017, dated 2022).
Structures can show the parent of a compound that is named as a salt.

What was measured:
[1] = biological target: human recombinant DAO (Homo sapiens (Human), UniProt P19801); assay: Determination of selective inhibitory for DAO (diamine oxidase); type: biochemical; conditions: human recombinant DAO, 1,4-diaminobutane substrate
human recombinant DAO, sequence (P19801 20-751): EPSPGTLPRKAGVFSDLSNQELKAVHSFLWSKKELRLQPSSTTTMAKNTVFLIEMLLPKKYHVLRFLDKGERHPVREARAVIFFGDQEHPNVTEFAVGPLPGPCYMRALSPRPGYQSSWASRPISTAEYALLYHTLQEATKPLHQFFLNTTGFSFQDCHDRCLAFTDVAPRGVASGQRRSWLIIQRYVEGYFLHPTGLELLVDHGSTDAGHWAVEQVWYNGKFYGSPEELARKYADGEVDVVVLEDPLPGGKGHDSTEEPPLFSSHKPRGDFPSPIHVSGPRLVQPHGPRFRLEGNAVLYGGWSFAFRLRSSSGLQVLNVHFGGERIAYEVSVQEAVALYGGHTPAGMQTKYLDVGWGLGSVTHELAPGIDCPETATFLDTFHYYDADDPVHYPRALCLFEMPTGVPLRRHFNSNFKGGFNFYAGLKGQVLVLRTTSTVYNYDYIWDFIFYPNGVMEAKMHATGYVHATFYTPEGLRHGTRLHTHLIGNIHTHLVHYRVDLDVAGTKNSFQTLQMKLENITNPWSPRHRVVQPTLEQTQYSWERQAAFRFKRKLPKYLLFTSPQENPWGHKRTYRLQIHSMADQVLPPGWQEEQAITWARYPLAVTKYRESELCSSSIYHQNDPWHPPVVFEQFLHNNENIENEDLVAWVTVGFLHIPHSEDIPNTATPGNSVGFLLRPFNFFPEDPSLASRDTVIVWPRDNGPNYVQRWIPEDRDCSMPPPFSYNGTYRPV
Method: 3. Determination of Selective Inhibitory for DAO (Diamine Oxidase)
Test purpose: The following methods can be used to determine the selective inhibitory activity of the compounds of the invention for DAO.
human recombinant DAO (Recombinant Human ABP-1/DAO) purchased from R&D, Cat. No. 8298-AO;
The test compound was dissolved in DMSO and diluted to 6 concentrations in 5-fold serial dilution. In 384 well plates, 24 μL of human recombinant DAO (1 μg/mL) was added to each well. 1 μL Of test compounds with different concentrations were added to each well containing human recombinant DAO and incubated at 37° C. for 30 min. After 30 min incubation, 25 μL of Amplex® Red Hydrogen PeroxidePeroxidase Assay Kit (containing a reaction mixture of 100 μM Amplex® Red and 0.2 U/mL HRP) containing 1 M 1,4-Diaminobutane dihydrochloride was added to the corresponding well, and incubated at 37° C. and dark for 30 min. After 30 min, the relative fluorescence unit (RFU) was read by using PHERAstar FSX enzyme marker of BMG LABTECH at 540 nm excitation and 580 nm emission. The curve was drawn by using the graph pad prism 5 software, and the IC50 value was calculated. The results were shown in table 3, wherein the compound listed in table 3 is the compound in the preparation examples with the same compound number: […]

[2] = biological target: rat adipose tissue homogenate SSAO/VAP-1 (Rattus norvegicus (Rat), UniProt O08590); assay: Determination of inhibitory activity of rat adipose tissue homogenate SSAO/VAP-1; type: biochemical, Sprague Dawley rats; conditions: rat abdominal adipose tissue homogenate, pargyline pretreated, 37° C.
rat adipose tissue homogenate SSAO/VAP-1, sequence (O08590 whole entry): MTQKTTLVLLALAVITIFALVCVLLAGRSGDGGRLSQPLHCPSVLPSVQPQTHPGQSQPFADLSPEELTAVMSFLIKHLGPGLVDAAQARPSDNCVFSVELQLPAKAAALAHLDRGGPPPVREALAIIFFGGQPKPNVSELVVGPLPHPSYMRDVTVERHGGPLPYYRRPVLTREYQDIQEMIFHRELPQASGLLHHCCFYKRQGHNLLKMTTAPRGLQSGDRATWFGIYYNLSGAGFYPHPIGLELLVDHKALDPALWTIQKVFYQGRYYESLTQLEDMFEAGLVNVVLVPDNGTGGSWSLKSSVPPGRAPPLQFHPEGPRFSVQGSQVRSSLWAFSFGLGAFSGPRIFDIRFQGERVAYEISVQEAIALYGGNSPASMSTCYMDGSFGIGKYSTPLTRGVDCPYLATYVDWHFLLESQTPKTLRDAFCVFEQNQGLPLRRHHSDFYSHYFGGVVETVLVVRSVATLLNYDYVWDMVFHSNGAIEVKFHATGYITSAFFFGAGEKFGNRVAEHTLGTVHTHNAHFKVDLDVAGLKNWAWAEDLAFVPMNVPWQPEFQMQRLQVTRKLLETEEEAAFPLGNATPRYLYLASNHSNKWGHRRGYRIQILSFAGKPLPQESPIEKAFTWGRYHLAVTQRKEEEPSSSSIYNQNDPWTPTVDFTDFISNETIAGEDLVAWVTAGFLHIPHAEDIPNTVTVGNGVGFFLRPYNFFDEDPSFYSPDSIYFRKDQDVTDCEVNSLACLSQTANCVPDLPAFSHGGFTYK
Method: 2. Determination of Inhibitory Activity of Rat Adipose Tissue Homogenate SSAO/VAP-1
Test purpose: The following methods can be used to determine the inhibitory activity of the compounds of the invention for rat adipose tissue homogenate SSAO/VAP-1.
The abdominal fat removed from Sprague Dawley rats was a tissue rich in SSAO/VAP-1. 5 mL Of HES buffer per gram of rat abdominal adipose tissue (20 mM Sodium N-piperazine-N-ethanesulfonate, 1 mm EDTA, 250 mM sucrose, 1×PMSF and 100 mM (3-glycerol phosphate disodium salt hydrate, pH 7.4) was added for homogenizing. The fat tissue was homogenized for 3 min by using Bertin precellys 24 multi-functional sample homogenizer of Bertin technologies, and the fat tissue homogenate was centrifuged for 10 min at 4° C. and 20000 g, and the middle transparent supernatant was taken. The supernatant was incubated with 0.5 mm Pargyline hydrochloride dissolved in HES buffer at 37° C. for 30 min. After 30 min incubation, 25 μl of fat tissue supernatant was added to the standard 96 well plate. The test compound was dissolved in DMSO and diluted to 6 concentrations. 25 μL Of the test compounds with different concentrations was added to each well containing the supernatant of fat tissue and incubated at 37° C. for 30 min. After incubation, 50 μL of the reaction mixture containing 80 μM benzylamine hydrochloride (containing 100 μM Amplex® red and 0.2 U/mL HRP, Amplex® Red Hydrogen peroxideperoxidase assay kit) was added to the corresponding wells and incubated at 37° C. for 30 min. After 30 min, the relative fluorescence unit (RFU) was read by using PHERAstar FSX enzyme marker of BMG LABTECH at 540 nm excitation and 580 nm emission. The curve was drawn by using the graph pad prism 5 software, and the IC50 value was calculated. The results were shown in table 2, wherein the compound listed in table 2 is the compound in the preparation examples with the same compound number: Table 2: inhibitory activity of the compound of examples of the invention for SSAO/VAP-1 of fat tissue homogenate

[3] = Pharmacokinetics in SD rats after intravenous or oral administration; type: in vivo; conditions: male, rat, plasma; for Vd: read-out: Vss
Method: 4. Pharmacokinetic Activities of the Compounds of the Invention
Test purpose: The following methods were used to evaluate the pharmacokinetics of the compound of the invention.
SD rats: male, 180-220 g, 7-8 weeks old, purchased from Hunan SJA Laboratory Animal Co., Ltd.
Test compound was prepared by dissolving in a mixture of 5% DMSO+5% KolliphorHS15+90% Saline and adjusted according to the dissolution of each compound, so that the compound can be completely dissolved.
The samples were processed by liquid-liquid extraction, separated by chromatography, quantitatively analyzed by multiple reaction ion monitoring (MRM) on triple quadrupole tandem mass spectrometer, and the results were calculated by using quantitative software.
Taking 30 μL of plasma sample precisely, adding 250 μL of internal standard, and vortex mixing uniformly. Extracting once with 1 mL MTBE, centrifugating at 13000 rpm and 4° C. for 2 min, taking 800 μL of supernatant, and evaporating it in a 96-well termovap sample concentrator, dissolving the residue with 150 μL methanol/water=50/50, vortex mixing, injecting 8 μL.
Determining the content of different compounds in the plasma of rats after the administration by using LC/MS/MS method.
Pharmacokinetic parameters were calculated using a noncompartmental method by WinNonLin 6.1 software.
The pharmacokinetic data of the compounds of the invention were listed in table 4, wherein the compound listed in table 4 is the compound in the preparation examples with the same compound number: […]

[4] = biological target: Human recombinant SSAO/VAP-1 (Homo sapiens (Human), UniProt Q16853); assay: Determination of inhibitory activity of human recombinant SSAO/VAP-1 (Amplex Red, benzylamine); type: biochemical; conditions: human recombinant SSAO/VAP-1, 30 min preincubation at room temperature; read-out: SSAO/VAP-1(Human recombinant protein) IC50/nM
Human recombinant SSAO/VAP-1, sequence (Q16853 whole entry): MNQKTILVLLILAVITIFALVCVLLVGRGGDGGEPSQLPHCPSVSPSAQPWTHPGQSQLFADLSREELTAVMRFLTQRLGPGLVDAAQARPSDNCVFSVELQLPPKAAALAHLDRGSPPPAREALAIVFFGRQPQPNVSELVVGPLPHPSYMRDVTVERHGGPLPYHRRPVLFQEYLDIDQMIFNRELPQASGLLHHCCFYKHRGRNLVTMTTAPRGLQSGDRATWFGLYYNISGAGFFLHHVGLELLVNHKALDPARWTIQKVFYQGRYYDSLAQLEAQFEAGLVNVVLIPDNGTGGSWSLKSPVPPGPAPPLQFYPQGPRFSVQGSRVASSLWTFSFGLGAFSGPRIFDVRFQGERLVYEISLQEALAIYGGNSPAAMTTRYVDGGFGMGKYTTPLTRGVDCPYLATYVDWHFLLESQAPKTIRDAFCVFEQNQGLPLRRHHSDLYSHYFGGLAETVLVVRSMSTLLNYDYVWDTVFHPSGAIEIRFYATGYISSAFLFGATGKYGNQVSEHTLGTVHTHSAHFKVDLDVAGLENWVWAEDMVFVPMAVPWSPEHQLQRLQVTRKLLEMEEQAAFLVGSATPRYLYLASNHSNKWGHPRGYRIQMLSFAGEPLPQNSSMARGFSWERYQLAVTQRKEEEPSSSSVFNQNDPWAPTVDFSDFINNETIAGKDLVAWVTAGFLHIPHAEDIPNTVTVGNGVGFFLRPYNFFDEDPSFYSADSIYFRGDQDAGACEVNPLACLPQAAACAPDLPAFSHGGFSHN
Method: 1. Determination of Inhibitory Activity of Human Recombinant SSAO/VAP-1
Test purpose: The following methods can be used to determine the inhibitory activity of the compounds described in the examples of the invention for human recombinant SSAO/VAP-1.
Human recombinant SSAO/VAP-1 (VAP-1, human) purchased from Sigma, Cat. No. SRP6241;
The test compound was dissolved in DMSO and diluted to 10 concentrations in 4-fold serial dilution. In 384 well plates, 25 μL of human recombinant SSAO/VAP-1 (1.6 μg/ml) was added to each well. 100 nL of test compounds with different concentrations were added to each well containing human recombinant SSAO/VAP-1 and incubated at room temperature for 30 min. After 30 min incubation, 25 μl of Amplex® red monoamine oxidase assay kit (containing a reaction mixture of 200 μm Amplex Red reagent, 1 U/ml HRP and 1 mm benzylamine hydrochloride) was added to the corresponding well, and incubated at room temperature and dark for 60 min. After 60 min, the relative fluorescence unit (RFU) was read by using PerkinElmer's Envision at 530-560 nm excitation and 590 nm emission. The curve was drawn by using the graph pad prism 5 software, and the IC50 value was calculated. The results were shown in table 1, wherein the compound listed in table 1 is the compound in the preparation examples with the same compound number: […]

Structure (SMILES): NC/C(=C\F)COc1ccc2c(c1)CCNC2=O [Compound 3, 6-[(E)-2-(aminomethyl)-3-fluoro-allyloxy]-3,4-dihydro-2H-isoquinolin-1-one hydrochloride]
- IC50 [1]: > 0.1 µM

Structure (SMILES): CCOC(=O)CN1CCc2cc(OC/C(=C/F)CN)ccc2C1=O [Compound 12, ethyl 2-[6-[(E)-2-(aminomethyl)-3-fluoro-allyloxy]-1-oxo-3,4-dihydroisoquinolin-2-yl]acetate hydrochloride]
- IC50 [2]: 10.1 nM
- IC50 [1]: > 0.1 µM
- AUC(0-inf) ([3]; iv, I.V., 1 mg/kg): 843 ng·h/mL
- AUC(0-t) ([3]; iv, I.V., 1 mg/kg): 837 ng·h/mL
- Cmax ([3]; iv, I.V., 1 mg/kg): 946 ng/mL
- Tmax ([3]; iv, I.V., 1 mg/kg): 15 min
- clearance ([3]; iv, I.V., 1 mg/kg): 330 mL/min/kg
- half-life ([3]; iv, I.V., 1 mg/kg): 56.2 min
- Vd ([3]; iv, I.V., 1 mg/kg): 1.07 L/kg
- AUC(0-inf) ([3]; po, P.O., 5 mg/kg): 2900 ng·h/mL
- AUC(0-t) ([3]; po, P.O., 5 mg/kg): 2890 ng·h/mL
- Cmax ([3]; po, P.O., 5 mg/kg): 2190 ng/mL
- Tmax ([3]; po, P.O., 5 mg/kg): 25 min
- half-life ([3]; po, P.O., 5 mg/kg): 57.5 min
- IC50 [4]: 0.14 nM

Structure (SMILES): NC/C(=C\F)COc1ccc2c(c1)C(=O)NCC2 [Compound 14, 7-[(E)-2-(aminomethyl)-3-fluoro-allyloxy]-3,4-dihydro-2H-isoquinolin-1-one hydrochloride]
- IC50 [1]: > 1 µM

Structure (SMILES): COCCN1CCc2cc(OC/C(=C/F)CN)ccc2C1=O [Compound 18, 6-[(E)-2-(aminomethyl)-3-fluoro-allyloxy]-2-(2-methoxyethyl)-3,4-dihydroisoquinolin-1-one hydrochloride]
- IC50 [2]: 6.13 nM
- IC50 [4]: 0.48 nM

Structure (SMILES): COCCN1CCc2cc(OC/C(=C\F)CN)ccc2C1=O [Compound 19, 6-[(Z)-2-(aminomethyl)-3-fluoro-allyloxy]-2-(2-methoxyethyl)-3,4-dihydro isoquinolin-1-one hydrochloride]
- IC50 [2]: 5.7 nM
- IC50 [4]: 1 nM

Structure (SMILES): Cc1ccc(N2CCc3cc(OC/C(=C/F)CN)ccc3C2=O)cc1 [Compound 24, 6-[(E)-2-(aminomethyl)-3-fluoro-allyloxy]-2-(p-methylphenyl)-3,4-dihydroisoquinolin-1-one hydrochloride]
- IC50 [1]: > 0.1 µM
- AUC(0-inf) ([3]; iv, I.V., 1 mg/kg): 450 ng·h/mL
- AUC(0-t) ([3]; iv, I.V., 1 mg/kg): 364 ng·h/mL
- Cmax ([3]; iv, I.V., 1 mg/kg): 144 ng/mL
- Tmax ([3]; iv, I.V., 1 mg/kg): 4.98 min
- clearance ([3]; iv, I.V., 1 mg/kg): 617 mL/min/kg
- half-life ([3]; iv, I.V., 1 mg/kg): 179 min
- Vd ([3]; iv, I.V., 1 mg/kg): 9.19 L/kg
- AUC(0-inf) ([3]; po, P.O., 5 mg/kg): 5320 ng·h/mL
- AUC(0-t) ([3]; po, P.O., 5 mg/kg): 5280 ng·h/mL
- Cmax ([3]; po, P.O., 5 mg/kg): 569 ng/mL
- Tmax ([3]; po, P.O., 5 mg/kg): 150 min
- half-life ([3]; po, P.O., 5 mg/kg): 207 min
- IC50 [4]: 1.16 nM

Structure (SMILES): NC/C(=C/F)COc1ccc2c(c1)CCNS2(=O)=O [Compound 33, (E)-2-[(1,1-dioxo-3,4-dihydro-2H-benzo[e][1,2]thiazin-6-yl)oxymethyl]-3-fluoro-prop-2-enyl-1-amine hydrochloride]
- IC50 [2]: 4.88 nM
- IC50 [4]: 1.98 nM

Structure (SMILES): Cc1ccccc1N1CCc2cc(OC/C(=C/F)CN)ccc2C1=O [Compound 46, 6-[(E)-2-(aminomethyl)-3-fluoro-allyloxy]-2-o-methylphenyl-3,4-dihydroisoquinolin-1-one hydrochloride]
- IC50 [1]: > 0.1 µM
